Data: ChEMBL document CHEMBL1201862, “PubChem BioAssay data set” (2004)
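Values below derive from 48-hour exposures of cells grown in 96-well plates, with endpoints linearly interpolated between the two concentrations bracketing the appropriate inhibition level. The concentration for 50% growth inhibition is given as GI50.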 Activity calls are given as the source filed them. Rule as the data show it: active = GI50 up to about 1.1 µM and inactive = higher.

Key:
Experiment in all cases: inhibition of tumour cell growth, NCI panel, 48 h
[1] = tested on: HOP-92
[2] = tested on: COLO 205
[3] = tested on: M14
[4] = tested on: SK-MEL-5
[5] = tested on: NCI/ADR-RES
[6] = tested on: SK-OV-3
[7] = tested on: SNB-19
[8] = tested on: ACHN
[9] = tested on: LOX IMVI
[10] = tested on: A549
[11] = tested on: BT-549
[12] = tested on: SW-620
[13] = tested on: NCI-H522
[14] = tested on: SK-MEL-2
[15] = tested on: HT-29
[16] = tested on: Hs-578T
[17] = tested on: TK-10
[18] = tested on: HOP-62
[19] = tested on: SR

Compound	GI50 [1]	GI50 [2]	GI50 [3]	GI50 [4]	GI50 [5]	GI50 [6]	GI50 [7]	GI50 [8]	GI50 [9]	GI50 [10]	GI50 [11]	GI50 [12]	GI50 [13]	GI50 [14]	GI50 [15]	GI50 [16]	GI50 [17]	GI50 [18]	GI50 [19]
C=CCOc1cc(NC(=S)c2ccoc2C)ccc1OC	27.9 µM (inactive)	> 100 µM (inactive)	> 100 µM (inactive)	> 100 µM (inactive)	> 100 µM (inactive)	> 100 µM (inactive)	> 100 µM (inactive)	> 100 µM (inactive)	> 100 µM (inactive)	> 100 µM (inactive)	> 100 µM (inactive)	> 100 µM (inactive)	> 100 µM (inactive)	> 100 µM (inactive)	> 100 µM (inactive)	> 100 µM (inactive)	–	–	–
COc1cccc(OC)c1NC(=O)C(=O)Nn1c(NNC(=O)c2ccncc2)nc2ccccc2c1=O	> 100 µM (inactive)	–	> 100 µM (inactive)	> 100 µM (inactive)	> 100 µM (inactive)	> 100 µM (inactive)	> 100 µM (inactive)	> 100 µM (inactive)	> 100 µM (inactive)	> 100 µM (inactive)	> 100 µM (inactive)	> 100 µM (inactive)	> 100 µM (inactive)	> 100 µM (inactive)	> 100 µM (inactive)	> 100 µM (inactive)	> 100 µM (inactive)	> 100 µM (inactive)	–
CNC(=O)Oc1ccc(C(=S)Nc2ccc(Br)cc2)cc1	–	18.2 µM (inactive)	18.1 µM (inactive)	17.8 µM (inactive)	17.6 µM (inactive)	44 µM (inactive)	36.3 µM (inactive)	24.4 µM (inactive)	13.4 µM (inactive)	21.9 µM (inactive)	17.1 µM (inactive)	23.1 µM (inactive)	11.4 µM (inactive)	17.7 µM (inactive)	19.9 µM (inactive)	19.8 µM (inactive)	–	20.6 µM (inactive)	13.6 µM (inactive)
CSc1nc(Cl)c2c(n1)Sc1nc3ccccc3n1N=C2	18.3 µM (inactive)	23 µM (inactive)	21 µM (inactive)	21.3 µM (inactive)	21.7 µM (inactive)	> 100 µM (inactive)	> 100 µM (inactive)	23.7 µM (inactive)	18.2 µM (inactive)	45.2 µM (inactive)	18.6 µM (inactive)	13.2 µM (inactive)	19 µM (inactive)	50.4 µM (inactive)	23.2 µM (inactive)	26.7 µM (inactive)	33.7 µM (inactive)	41.7 µM (inactive)	–
Cc1nnc2n1-c1ccccc1C(=S)N1CSCC21 (stereo not given)	–	> 100 µM (inactive)	> 100 µM (inactive)	> 100 µM (inactive)	> 100 µM (inactive)	> 100 µM (inactive)	> 100 µM (inactive)	> 100 µM (inactive)	> 100 µM (inactive)	> 100 µM (inactive)	> 100 µM (inactive)	> 100 µM (inactive)	> 100 µM (inactive)	> 100 µM (inactive)	> 100 µM (inactive)	> 100 µM (inactive)	> 100 µM (inactive)	> 100 µM (inactive)	> 100 µM (inactive)
O=C(CC(NC(=O)OCc1ccccc1)C(=O)NC1Cc2ccccc2C1=O)OCc1ccccc1 (stereo not given)	–	–	> 100 µM (inactive)	> 100 µM (inactive)	> 100 µM (inactive)	> 100 µM (inactive)	> 100 µM (inactive)	> 100 µM (inactive)	–	> 100 µM (inactive)	> 100 µM (inactive)	> 100 µM (inactive)	> 100 µM (inactive)	> 100 µM (inactive)	> 100 µM (inactive)	84.3 µM (inactive)	> 100 µM (inactive)	> 100 µM (inactive)	> 100 µM (inactive)
CCOC(=O)C(NC(=O)Nc1ccc(Cl)c(Cl)c1)C(F)(F)F (stereo not given)	–	> 100 µM (inactive)	> 100 µM (inactive)	> 100 µM (inactive)	> 100 µM (inactive)	> 100 µM (inactive)	> 100 µM (inactive)	57.4 µM (inactive)	> 100 µM (inactive)	> 100 µM (inactive)	45.2 µM (inactive)	> 100 µM (inactive)	–	63 µM (inactive)	> 100 µM (inactive)	40.5 µM (inactive)	> 100 µM (inactive)	–	> 100 µM (inactive)
O=C(O)C/N=C(\C(=N\CC(=O)O)c1ccccc1)c1ccccc1	–	> 100 µM (inactive)	> 100 µM (inactive)	–	> 100 µM (inactive)	> 100 µM (inactive)	> 100 µM (inactive)	> 100 µM (inactive)	> 100 µM (inactive)	> 100 µM (inactive)	> 100 µM (inactive)	> 100 µM (inactive)	> 100 µM (inactive)	> 100 µM (inactive)	–	> 100 µM (inactive)	> 100 µM (inactive)	> 100 µM (inactive)	> 100 µM (inactive)
COc1ccc(Cl)cc1NC(=O)O/N=C(\Cl)C(C)C	1.97 µM (inactive)	2.19 µM (inactive)	3.28 µM (inactive)	5.22 µM (inactive)	5.27 µM (inactive)	18.7 µM (inactive)	29.5 µM (inactive)	2.12 µM (inactive)	2.08 µM (inactive)	18.8 µM (inactive)	2.56 µM (inactive)	2.7 µM (inactive)	0.752 µM (active)	18.7 µM (inactive)	16.4 µM (inactive)	23.7 µM (inactive)	2.55 µM (inactive)	18.4 µM (inactive)	–
Cc1ccc(S(=O)(=O)Nn2c(S)c(C#N)c(-c3ccc([N+](=O)[O-])cc3)c(C#N)c2=O)cc1	32.1 µM (inactive)	29.2 µM (inactive)	35.1 µM (inactive)	12 µM (inactive)	33 µM (inactive)	82 µM (inactive)	–	51.5 µM (inactive)	14.8 µM (inactive)	47.9 µM (inactive)	12.8 µM (inactive)	19.2 µM (inactive)	15.7 µM (inactive)	23 µM (inactive)	32.5 µM (inactive)	32.4 µM (inactive)	65.3 µM (inactive)	98.2 µM (inactive)	–
OCCNc1ncnc2c1ncn2C1OC(CO)C(O)C1O (stereo not given)	51.4 µM (inactive)	> 100 µM (inactive)	> 100 µM (inactive)	> 100 µM (inactive)	50.6 µM (inactive)	> 100 µM (inactive)	> 100 µM (inactive)	71.3 µM (inactive)	40.4 µM (inactive)	> 100 µM (inactive)	> 100 µM (inactive)	> 100 µM (inactive)	47.3 µM (inactive)	> 100 µM (inactive)	> 100 µM (inactive)	48 µM (inactive)	71.3 µM (inactive)	> 100 µM (inactive)	–
CC1=C(CO)C(=O)O[C@@H]([C@@H](C)[C@H]2CC[C@H]3[C@@H]4C[C@@H](O)[C@@]5(O)CC=CC(=O)[C@]5(C)[C@H]4CC[C@]23C)C1 [JABOROSALACTONE D]	42 µM (inactive)	43.1 µM (inactive)	49.2 µM (inactive)	32.6 µM (inactive)	21.1 µM (inactive)	63.8 µM (inactive)	46.5 µM (inactive)	26.8 µM (inactive)	23.5 µM (inactive)	38 µM (inactive)	27.7 µM (inactive)	21.7 µM (inactive)	14.2 µM (inactive)	43.7 µM (inactive)	33.1 µM (inactive)	35.7 µM (inactive)	> 100 µM (inactive)	64 µM (inactive)	–
